Values quoted from earlier work in US9346786B2, “Pyrrolidine compounds” (Hoffmann-La Roche Inc., priority 2009, dated 2016).

Settings: phase II trial; cited from earlier work

CC(=O)N(C)C1(c2ccccc2)CCN(CCC[C@]2(c3ccc(Cl)c(Cl)c3)CCCN(C(=O)c3ccccc3)C2)CC1 [SR 142,801, Osanetant]
activity on negative symptoms of schizophrenia: inactive in the treatment of negative symptoms | activity on positive symptoms of schizophrenia: active on positive symptoms of schizophrenia
